Assays:
[1] = target: T1, human μ opiate receptor (Homo sapiens, UniProt P35372); assay: Affinity for the human μ opiate receptor ([3H]-naloxone displacement, CHO-K1 receptor membrane preparation, SPA); type: binding; details: test concentration of 1 μM; read-out: μ (binding on the μ opioid receptor, % inhibition)
T1 construct: purchased PerkinElmer Life Sciences, Zaventem, Belgium RB-HOM; host or cells: CHO-K1 cells (membrane preparation)
Procedure, shortened: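 Displacement of 1 nmol/l [3H]-naloxone measured by SPA counting after 90 min at room temperature, using human μ receptor CHO-K1 membrane preparation in Tris-HCl buffer with 0.06% BSA. Test substances at 1 μmol/l give % inhibition; dilution series yield IC50, then Ki (Cheng-Prusoff); non-specific binding with 100 μmol/l naloxone.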

[2] = target: T2, serotonin (5-HT) reuptake (Rattus norvegicus, UniProt P31652); assay: Inhibition of serotonin (5HT) reuptake in synaptosomes from rat brain; type: biochemical; details: test concentration of 10 μM; read-out: 5-HT (inhibition of reuptake of serotonin, % inhibition)
T2 construct: synaptosomes are freshly isolated from areas of the rat brain; from tissue; host or cells: rat brain synaptosomes (P2 fraction)
T2 sequence (P31652 whole entry): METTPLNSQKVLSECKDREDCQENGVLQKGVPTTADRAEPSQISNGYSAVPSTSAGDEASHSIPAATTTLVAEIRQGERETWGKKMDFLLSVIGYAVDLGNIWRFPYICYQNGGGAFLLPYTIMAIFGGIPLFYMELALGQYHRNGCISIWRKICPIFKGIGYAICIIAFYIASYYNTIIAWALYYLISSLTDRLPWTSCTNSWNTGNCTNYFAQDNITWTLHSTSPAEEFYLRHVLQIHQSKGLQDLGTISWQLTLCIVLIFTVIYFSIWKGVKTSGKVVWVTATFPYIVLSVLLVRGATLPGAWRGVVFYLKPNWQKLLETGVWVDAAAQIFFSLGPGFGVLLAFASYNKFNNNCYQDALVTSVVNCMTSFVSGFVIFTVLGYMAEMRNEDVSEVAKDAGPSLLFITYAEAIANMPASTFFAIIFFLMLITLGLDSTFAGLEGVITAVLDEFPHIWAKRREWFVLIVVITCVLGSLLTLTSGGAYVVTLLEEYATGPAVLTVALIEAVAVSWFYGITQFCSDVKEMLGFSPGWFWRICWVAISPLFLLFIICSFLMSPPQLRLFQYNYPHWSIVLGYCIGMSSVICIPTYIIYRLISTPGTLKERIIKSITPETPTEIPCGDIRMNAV
Procedure, shortened: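 Compounds screened at 10 μM and reported as percent inhibition of serotonin uptake. Uptake measured in a freshly prepared P2 synaptosomal fraction from rat brain.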

T1 sequence (P35372 whole entry): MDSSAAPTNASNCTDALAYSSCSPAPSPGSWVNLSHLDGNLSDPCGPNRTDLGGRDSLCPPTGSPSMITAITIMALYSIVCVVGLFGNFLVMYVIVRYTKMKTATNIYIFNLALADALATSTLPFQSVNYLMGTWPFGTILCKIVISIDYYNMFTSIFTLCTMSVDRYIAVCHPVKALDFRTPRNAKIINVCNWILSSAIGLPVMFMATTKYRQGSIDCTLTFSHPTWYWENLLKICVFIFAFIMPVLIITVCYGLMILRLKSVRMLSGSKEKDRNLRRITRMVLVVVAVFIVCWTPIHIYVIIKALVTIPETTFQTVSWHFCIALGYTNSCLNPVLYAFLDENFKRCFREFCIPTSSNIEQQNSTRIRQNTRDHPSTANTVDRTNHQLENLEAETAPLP

| SMILES | inhibition at 1 µM [1] [%] | inhibition at 10 µM [2] [%] |
| --- | --- | --- |
| CN(C)C(c1cccs1)C1CCC(CCNC(=O)COCCN(C)S(=O)(=O)c2ccc(Cl)cc2Cl)CC1 (stereo not shown) [Example 9, 2-(2-(2,4-dichloro-N-methylphenylsulfonamido)ethoxy)-N-(2-(4-((dimethylamino) (thiophen-2-yl)methyl)cyclohexyl)ethyl)acetamide] | 98 | 91 |
| CN(C)C(c1cccs1)C1CCC(NC(=O)COCCN(C)S(=O)(=O)c2ccc(F)cc2)CC1 (stereo not shown) [Example 10, N-(4-((dimethylamino)(thiophen-2-yl)methyl)cyclohexyl)-2-(2-(4-fluoro-N-methylphenylsulfonamido)ethoxy)acetamide] | 98 | 76 |
| CN(C)C(c1cccs1)C1CCC(NC(=O)COC2CCN(S(=O)(=O)c3cccc(C(F)(F)F)c3)C2)CC1 (stereo not shown) [Example 11, N-(4-((dimethylamino)(thiophen-2-yl)methyl)cyclohexyl)-2-(1-(3-(trifluoromethyl)phenylsulfonyl)pyrrolidin-3-yloxy)acetamide] | 98 | 86 |
| Cc1cc(C)c(S(=O)(=O)N2CCC(OCC(=O)NC3CCC(C(c4cccs4)N(C)C)CC3)C2)c(C)c1 (stereo not shown) [Example 12, N-(4-((dimethylamino)(thiophen-2-yl)methyl)cyclohexyl)-2-(1-(mesitylsulfonyl)pyrrolidin-3-yloxy)acetamide] | 98 | 79 |
| CN(C)C(c1ccccc1)C1CCC(CNC(=O)COCCN(C)S(=O)(=O)c2c(Cl)cccc2Cl)CC1 (stereo not shown) [Example 13, 2-(2-(2,6-dichloro-N-methylphenylsulfonamido)ethoxy)-N-((4-((dimethylamino)(phenyl)methyl)cyclohexyl)methyl)acetamide] | 98 | 84 |
| CN(C)C(c1ccccc1)C1CCC(CNC(=O)COCCN(C)S(=O)(=O)c2c(Cl)cc(Cl)cc2Cl)CC1 (stereo not shown) [Example 14, N-((4-((dimethylamino)(phenyl)methyl)cyclohexyl)methyl)-2-(2-(2,4,6-trichloro-N-methylphenylsulfonamido)ethoxy)acetamide] | 98 | 99 |
| CN(C)C(c1ccccc1)C1CCC(CNC(=O)COCCN(Cc2ccccc2)S(=O)(=O)c2ccccc2)CC1 (stereo not shown) [Example 15, 2-(2-(N-benzylphenylsulfonamido)ethoxy)-N-((4-((dimethylamino)(phenyl)methyl)cyclohexyl)methyl)acetamide] | 98 | 99 |
| CCN(CCOCC(=O)NCC1CCC(C(c2cccs2)N(C)C)CC1)S(=O)(=O)c1c(C)cc(OC)c(C)c1C (stereo not shown) [Example 16, N-((4-((dimethylamino)(thiophen-2-yl)methyl)cyclohexyl)methyl)-2-(2-(N-ethyl-4-methoxy-2,3,6-trimethylphenylsulfonamido)ethoxy)acetamide] | 98 | 98 |
| CN(C)C(c1ccccc1)C1CCC(CNC(=O)COCC2CCCCN2S(=O)(=O)c2ccc(Cl)c(Cl)c2)CC1 (stereo not shown) [Example 17, 2-((1-(3,4-dichlorophenylsulfonyl)piperidin-2-yl)methoxy)-N-((4-((dimethylamino)(phenyl)methyl)cyclohexyl)methyl)acetamide] | 98 | 93 |
| CN(C)C(c1ccccc1)C1CCC(CNC(=O)COCC2CCCN2S(=O)(=O)c2ccc(Cl)c(Cl)c2)CC1 (stereo not shown) [Example 18, 2-((1-(3,4-dichlorophenylsulfonyl)pyrrolidin-2-yl)methoxy)-N-((4-((dimethylamino)(phenyl)methyl)cyclohexyl)methyl)acetamide] | 98 | 95 |
| COc1ccc(S(=O)(=O)N2Cc3ccccc3CC2COCC(=O)NCC2CCC(C(c3ccccc3)N(C)C)CC2)cc1 (stereo not shown) [Example 19, N-((4-((dimethylamino)(phenyl)methyl)cyclohexyl)methyl)-2-((2-(4-methoxyphenylsulfonyl)-1,2,3,4-tetrahydroisoquinolin-3-yl)methoxy)acetamide] | 98 | 92 |

— US8106055B2, “Substituted amide compounds” (Gruenenthal GmbH, priority 2007, dated 2012)
